Test results published in patent publication US6423732B1, “Synergistic combinations of cyproconazole” (Syngenta Participations AG, priority 1992, dated 2002).

Tests used:
Test in all cases: Wood preservation test ES 84/113, pine sapwood, weight loss of wood samples
Format in all cases: cell-based
[1] = tested on: Coniophora puteana (cellar fungus); conditions: substance alone
Experimental: (§1) Determination of the Activity of the Cyproconazole in Combination with Dimethyldidecylammonium Chloride Against Wood-destroying Basidiomycetes
(§2) The active substances were tested in accordance with European Testing Standards ES 84 (1979) and 113 (1986). Treatment with the active substances prevents the wood from being destroyed. The effect of the treatment is quantified indirectly via the non-existing weight loss of the wood samples.
(§3) The wood sample used was pine sapwood, and the test fungi used were Coniophora puteana (cellar fungus), Poria plazenta, Gloeophyllum trabeum and Trametes (Coriolus) versicolor. Markedly smaller amounts of the combination according to the invention of cyproconazole (A: 2-(4-chlorophenyl)-3-cyclopropyl-3-methyl-1-(1H,1,2,4-triazol-1-yl)-butan-2-ol) and dimethyldidecylammonium chloride (B1) have the same result (0% weight loss) as cyproconazole or B1 alone. Comparably good results were also obtained when beech was used as the wood sample.

[2] = tested on: Trametes (Coriolus) versicolor; conditions: substance alone
Experimental: as §1, §2, §3

Poria plazenta = conditions: substance alone
Experimental: as §1, §2, §3

Gloeophyllum trabeum = conditions: Gloephyllum, substance alone
Experimental: as §1, §2, §3

In the case of `CC(C1CC1)C(O)(Cn1cncn1)c1ccc(Cl)cc1` (centres unmarked) [A], the “Amount (g/m^3) of active Substance at 0% Weight Loss” value (“Amount … at 0% Weight Loss” for short) [1] is reported as 247 g g/m^3, the “Amount … at 0% Weight Loss” value [2] is reported as 418 g g/m^3 and the “Amount … at 0% Weight Loss” value (Poria plazenta) is reported as 243 g g/m^3. For the same compound, the “Amount … at 0% Weight Loss” value (Gloeophyllum trabeum) was 247 g g/m^3.
`CCCCCCCCCC[N+](C)(C)CCCCCCCCCC.[Cl-]` [B1, dimethyldidecylammonium chloride] was tested, and the “Amount … at 0% Weight Loss” value [1] was 12,415 g g/m^3, the “Amount … at 0% Weight Loss” value [2] was 2,675 g g/m^3 and the “Amount … at 0% Weight Loss” value (Poria plazenta) was 3,175 g g/m^3. The “Amount … at 0% Weight Loss” value (Gloeophyllum trabeum) was 12,505 g g/m^3.
